Here are results for 4 molecules from article PMC9386376, “Discovery of spirooxindole-derived small-molecule compounds as novel HDAC/MDM2 dual inhibitors and investigation of their anticancer activity” (Frontiers in Oncology, 2022).

Data set [1] addresses HDAC1 (Homo sapiens, UniProt Q13547). Put plainly: HTRF enzyme inhibition assay, HDAC1. The note with it: read-out: % enzyme inhibition HDAC.
Procedure: The data obtained were processed by the ratio method, and the inhibition rates of MDM2 and HDAC1 were calculated. The detailed experimental procedures are according to the manufacturer’s protocols.
The subject of data set [2] is A431 cells. Put plainly: MTT antiproliferative assay, A431. The conditions noted are these: Homo sapiens, A-431, read-out: IC50 A431. A general note: Tetrazolium assays rely on reduction of a dye to a coloured formazan, in cell work by metabolically active cells.
Procedure: (§1) The cytotoxicity assay was performed with MTT method as previously described ([73], [88], [89]).
In data set [3] the test system is HCT116 cells. Put plainly: MTT antiproliferative assay, HCT116. The conditions noted are these: Homo sapiens, HCT-116, read-out: IC50 HCT116.
Procedure: as §1
Data set [4] deals with T1, GST-tagged MDM2 (Homo sapiens, UniProt Q00987).
T1 construct: purchased Cisbio Co. Ltd
T1 sequence (Q00987 whole entry): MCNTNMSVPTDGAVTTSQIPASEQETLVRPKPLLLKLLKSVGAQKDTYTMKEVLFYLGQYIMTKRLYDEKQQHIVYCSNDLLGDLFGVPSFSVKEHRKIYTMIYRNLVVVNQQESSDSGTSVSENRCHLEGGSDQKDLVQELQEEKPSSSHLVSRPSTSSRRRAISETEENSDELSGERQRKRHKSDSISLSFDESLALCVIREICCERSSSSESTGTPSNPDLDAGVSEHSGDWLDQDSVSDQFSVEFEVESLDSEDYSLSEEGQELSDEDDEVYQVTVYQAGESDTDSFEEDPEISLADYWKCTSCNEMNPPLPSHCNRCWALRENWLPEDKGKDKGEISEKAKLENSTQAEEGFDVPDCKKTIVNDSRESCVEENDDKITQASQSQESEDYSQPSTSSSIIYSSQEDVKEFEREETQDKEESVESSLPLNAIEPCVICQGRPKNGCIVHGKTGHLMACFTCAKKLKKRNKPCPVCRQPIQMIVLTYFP
Put plainly: HTRF enzyme inhibition assay, MDM2. Format: biochemical. The note with it: compound at 1 μM.

Data set [5] relates to MCF-7 cells. The data set can be described thus: MTT antiproliferative assay, MCF-7. The note with it: Homo sapiens, MCF7, read-out: IC50 MCF-7.
Procedure: as §1
For data set [6], the system named is MCF-7 cells. The data set can be described thus: Annexin V-FITC/PI double staining, flow cytometry. Format: cell-based, human. The note with it: MCF-7, 5.0 μM, 24 h. The method, then:
It was reported that the inactivation of HDAC and/or MDM2 could increase the percentage of apoptosis cells ([85]–[87]). Therefore, three methods were applied to assess the effect of MDM2-HDAC dual inhibitor 11b on the apoptosis of MCF-7 cells. […] Subsequently, the annexin V-FITC/propidium iodide (PI) double staining method was carried out to quantitatively detect the effect of compound 11b on cell apoptosis (Figure 9B).
Cells were collected after incubation, then fixed with 75% ice-cold ethanol and stored at -20°C for 1 h. The cells were then harvested with 0.25% trypsin (without EDTA) and centrifuged at 2000 rpm for 5min. Then, the harvested cells were washed with ice-cold PBS twice and resuspended in 500 μL of 1× binding buffer, which was then added to 5 μL of annexin V-FITC and incubated at room temperature in the dark for 15 min. After adding 10 μL of propidium iodide (PI), the cells were incubated at room temperature in the dark. After another 15 min incubation, the cells were collected and analyzed by flow cytometry.

HDAC1, sequence (Q13547 whole entry): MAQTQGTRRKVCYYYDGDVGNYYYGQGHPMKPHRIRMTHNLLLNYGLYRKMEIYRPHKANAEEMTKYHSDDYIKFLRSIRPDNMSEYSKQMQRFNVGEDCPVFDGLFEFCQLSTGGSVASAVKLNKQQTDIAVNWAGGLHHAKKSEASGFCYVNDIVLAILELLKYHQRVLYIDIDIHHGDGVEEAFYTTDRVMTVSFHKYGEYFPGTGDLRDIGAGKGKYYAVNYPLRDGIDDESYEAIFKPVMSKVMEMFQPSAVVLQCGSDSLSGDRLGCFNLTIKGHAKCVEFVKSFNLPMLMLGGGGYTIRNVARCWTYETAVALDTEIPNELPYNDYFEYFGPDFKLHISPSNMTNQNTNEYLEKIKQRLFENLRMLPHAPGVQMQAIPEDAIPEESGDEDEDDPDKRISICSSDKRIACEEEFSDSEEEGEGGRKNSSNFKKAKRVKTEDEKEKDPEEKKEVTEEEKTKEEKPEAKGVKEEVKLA

As to `O=C(CCCCCCC(=O)Nc1ccc([C@@H]2[C@@H](c3ccccc3)N[C@]3(C(=O)Nc4cc(Cl)ccc43)[C@H]2C(=O)c2ccccc2)cc1)NO` [15a, N^1-(4-((3R,3'S,4'R,5'S)-3'-benzoyl-6-chloro-2-oxo-5'-phenylspiro[indoline-3,2'-pyrrolidin]-4'-yl)phenyl)-N^8-hydroxyoctanediamide], the melting point was 146.5 to 147.6 °C. Further, in data set [1], the inhibition at 1 µM worked out at 61%. Further, the IC50 in data set [2] stood at 6.99 ± 0.92 µM. Moreover, the concentration for half-maximal inhibition (IC50) in data set [3] worked out at 8.45 ± 2.44 µM. For the same molecule, the inhibition at 1 µM in data set [4] is 67%. For the same molecule, the IC50 in data set [5] is 5.71 ± 1.03 µM.
Molecule `O=C(CCCCC(=O)N1CCC(C(=O)Nc2ccc([C@@H]3[C@H]4CSCN4[C@]4(C(=O)Nc5cc(Cl)ccc54)[C@H]3C(=O)c3ccccc3)cc2)CC1)NO` [11a, N-(4-((3R,6'S,7'R,7a'S)-6'-benzoyl-6-chloro-2-oxo-1',6',7',7a'-tetrahydro-3'H-spiro[indoline-3,5'-pyrrolo[1,2-c]thiazol]-7'-yl)phenyl)-1-(6-(hydroxyamino)-6-oxohexanoyl)piperidine-4-carboxamide] had a melting point of 170.3 to 171.5 °C. Besides, the inhibition at 1 µM in data set [1] was 70%. Also, the IC50 in data set [2] worked out at 4.62 ± 0.78 µM. The IC50 in data set [3] turned out to be 4.32 ± 0.9 µM. This molecule also had an inhibition at 1 µM in data set [4] of 62%. Besides, the IC50 in data set [5] came to 4.48 ± 1.46 µM.
`O=C(CCCCCCC(=O)Nc1ccccc1)NO` [SAHA, vorinostat] displayed an apoptotic cells in data set [6] of 7.56%.
For the molecule `COc1ccc(C2=N[C@@H](c3ccc(Cl)cc3)[C@@H](c3ccc(Cl)cc3)N2C(=O)N2CCNC(=O)C2)c(OC(C)C)c1` [Nutlin-3, reference compound], the results for the IC50 in data set [2], in data set [3] and in data set [5] were 9.72 ± 1.66 µM, 11 ± 2.42 µM and 9.75 ± 2.97 µM, respectively. Also, the apoptotic cells in data set [6] is 28.23%.

For orientation: inhibition means the share of the control response that was lost under treatment. Broadly, the IC50 is the concentration that gives 50% inhibition. As usually defined, the melting point is the temperature, or range, at which the solid turns liquid.
